Assay results published in the NIST ThermoML archive (doi:10.1021/acs.jced.9b00752).

Test: mn = molality of the nth substance listed, in mol/kg
Conditions: 100 kPa, Liquid, Vibrating tube method

N[C@@H](Cc1c[nH]cn1)C(=O)O [L-histidine] + O
Conditions	mass density [kg/m3]
273.65 K, m1 = 0.0078	1000.36
273.65 K, m1 = 0.0176	1000.94
273.65 K, m1 = 0.0269	1001.55
273.65 K, m1 = 0.048	1002.8
273.65 K, m1 = 0.0636	1003.83
273.65 K, m1 = 0.0856	1005.09
273.65 K, m1 = 0.0982	1005.86
273.65 K, m1 = 0.115	1006.76
273.65 K, m1 = 0.1268	1007.55
273.65 K, m1 = 0.138	1008.24
273.65 K, m1 = 0.1586	1009.57
274.15 K, m1 = 0.0078	1000.39
274.15 K, m1 = 0.0176	1000.96
274.15 K, m1 = 0.0269	1001.57
274.15 K, m1 = 0.048	1002.82
274.15 K, m1 = 0.0636	1003.85
274.15 K, m1 = 0.0856	1005.11
274.15 K, m1 = 0.0982	1005.87
274.15 K, m1 = 0.115	1006.77
274.15 K, m1 = 0.1268	1007.57
274.15 K, m1 = 0.138	1008.25
274.15 K, m1 = 0.1586	1009.58
274.65 K, m1 = 0.0078	1000.41
274.65 K, m1 = 0.0176	1000.99
274.65 K, m1 = 0.0269	1001.59
274.65 K, m1 = 0.048	1002.83
274.65 K, m1 = 0.0636	1003.87
274.65 K, m1 = 0.0856	1005.12
274.65 K, m1 = 0.0982	1005.88
274.65 K, m1 = 0.115	1006.77
274.65 K, m1 = 0.1268	1007.57
274.65 K, m1 = 0.138	1008.25
274.65 K, m1 = 0.1586	1009.58
275.15 K, m1 = 0.0078	1000.43
275.15 K, m1 = 0.0176	1001
275.15 K, m1 = 0.0269	1001.61
275.15 K, m1 = 0.048	1002.85
275.15 K, m1 = 0.0636	1003.88
275.15 K, m1 = 0.0856	1005.12
275.15 K, m1 = 0.0982	1005.89
275.15 K, m1 = 0.115	1006.78
275.15 K, m1 = 0.1268	1007.57
275.15 K, m1 = 0.138	1008.25
275.15 K, m1 = 0.1586	1009.58
275.65 K, m1 = 0.0078	1000.44
275.65 K, m1 = 0.0176	1001.01
275.65 K, m1 = 0.0269	1001.62
275.65 K, m1 = 0.048	1002.86
275.65 K, m1 = 0.0636	1003.88
275.65 K, m1 = 0.0856	1005.13
275.65 K, m1 = 0.0982	1005.89
275.65 K, m1 = 0.115	1006.78
275.65 K, m1 = 0.1268	1007.57
275.65 K, m1 = 0.138	1008.25
275.65 K, m1 = 0.1586	1009.58
276.15 K, m1 = 0.0078	1000.45
276.15 K, m1 = 0.0176	1001.02
276.15 K, m1 = 0.0269	1001.62
276.15 K, m1 = 0.048	1002.86
276.15 K, m1 = 0.0636	1003.88
276.15 K, m1 = 0.0856	1005.13
276.15 K, m1 = 0.0982	1005.89
276.15 K, m1 = 0.115	1006.78
276.15 K, m1 = 0.1268	1007.57
276.15 K, m1 = 0.138	1008.25
276.15 K, m1 = 0.1586	1009.57
276.65 K, m1 = 0.0078	1000.46
276.65 K, m1 = 0.0176	1001.02
276.65 K, m1 = 0.0269	1001.62
276.65 K, m1 = 0.048	1002.86
276.65 K, m1 = 0.0636	1003.88
276.65 K, m1 = 0.0856	1005.12
276.65 K, m1 = 0.0982	1005.88
276.65 K, m1 = 0.115	1006.77
276.65 K, m1 = 0.1268	1007.56
276.65 K, m1 = 0.138	1008.23
276.65 K, m1 = 0.1586	1009.55
277.15 K, m1 = 0.0078	1000.45
277.15 K, m1 = 0.0176	1001.02
277.15 K, m1 = 0.0269	1001.62
277.15 K, m1 = 0.048	1002.85
277.15 K, m1 = 0.0636	1003.88
277.15 K, m1 = 0.0856	1005.11
277.15 K, m1 = 0.0982	1005.87
277.15 K, m1 = 0.115	1006.76
277.15 K, m1 = 0.1268	1007.54
277.15 K, m1 = 0.138	1008.22
277.15 K, m1 = 0.1586	1009.54
277.65 K, m1 = 0.0078	1000.45
277.65 K, m1 = 0.0176	1001.02
277.65 K, m1 = 0.0269	1001.62
277.65 K, m1 = 0.048	1002.85
277.65 K, m1 = 0.0636	1003.87
277.65 K, m1 = 0.0856	1005.1
277.65 K, m1 = 0.0982	1005.86
277.65 K, m1 = 0.115	1006.75
277.65 K, m1 = 0.1268	1007.53
277.65 K, m1 = 0.138	1008.2
277.65 K, m1 = 0.1586	1009.52
278.15 K, m1 = 0.0078	1000.44
278.15 K, m1 = 0.0176	1001.01
278.15 K, m1 = 0.0269	1001.61
278.15 K, m1 = 0.048	1002.84
278.15 K, m1 = 0.0636	1003.85
278.15 K, m1 = 0.0856	1005.09
278.15 K, m1 = 0.0982	1005.85
278.15 K, m1 = 0.115	1006.73
278.15 K, m1 = 0.1268	1007.51
278.15 K, m1 = 0.138	1008.18
278.15 K, m1 = 0.1586	1009.5
278.65 K, m1 = 0.0078	1000.43
278.65 K, m1 = 0.0176	1001
278.65 K, m1 = 0.0269	1001.6
278.65 K, m1 = 0.048	1002.82
278.65 K, m1 = 0.0636	1003.84
278.65 K, m1 = 0.0856	1005.07
278.65 K, m1 = 0.0982	1005.82
278.65 K, m1 = 0.115	1006.7
278.65 K, m1 = 0.1268	1007.49
278.65 K, m1 = 0.138	1008.16
278.65 K, m1 = 0.1586	1009.47
279.15 K, m1 = 0.0078	1000.42
279.15 K, m1 = 0.0176	1000.98
279.15 K, m1 = 0.0269	1001.58
279.15 K, m1 = 0.048	1002.8
279.15 K, m1 = 0.0636	1003.82
279.15 K, m1 = 0.0856	1005.05
279.15 K, m1 = 0.0982	1005.8
279.15 K, m1 = 0.115	1006.68
279.15 K, m1 = 0.1268	1007.46
279.15 K, m1 = 0.138	1008.13
279.15 K, m1 = 0.1586	1009.44
279.65 K, m1 = 0.0078	1000.4
279.65 K, m1 = 0.0176	1000.97
279.65 K, m1 = 0.0269	1001.56
279.65 K, m1 = 0.048	1002.78
279.65 K, m1 = 0.0636	1003.79
279.65 K, m1 = 0.0856	1005.02
279.65 K, m1 = 0.0982	1005.77
279.65 K, m1 = 0.115	1006.65
279.65 K, m1 = 0.1268	1007.43
279.65 K, m1 = 0.138	1008.1
279.65 K, m1 = 0.1586	1009.41
280.15 K, m1 = 0.0078	1000.38
280.15 K, m1 = 0.0176	1000.94
280.15 K, m1 = 0.0269	1001.53
280.15 K, m1 = 0.048	1002.75
280.15 K, m1 = 0.0636	1003.76
280.15 K, m1 = 0.0856	1004.99
280.15 K, m1 = 0.0982	1005.74
280.15 K, m1 = 0.115	1006.62
280.15 K, m1 = 0.1268	1007.39
280.15 K, m1 = 0.138	1008.06
280.15 K, m1 = 0.1586	1009.37
280.65 K, m1 = 0.0078	1000.36
280.65 K, m1 = 0.0176	1000.92
280.65 K, m1 = 0.0269	1001.51
280.65 K, m1 = 0.048	1002.73
280.65 K, m1 = 0.0636	1003.73
280.65 K, m1 = 0.0856	1004.96
280.65 K, m1 = 0.0982	1005.71
280.65 K, m1 = 0.115	1006.58
280.65 K, m1 = 0.1268	1007.36
280.65 K, m1 = 0.138	1008.03
280.65 K, m1 = 0.1586	1009.33
281.15 K, m1 = 0.0078	1000.33
281.15 K, m1 = 0.0176	1000.89
281.15 K, m1 = 0.0269	1001.48
281.15 K, m1 = 0.048	1002.69
281.15 K, m1 = 0.0636	1003.7
281.15 K, m1 = 0.0856	1004.92
281.15 K, m1 = 0.0982	1005.67
281.15 K, m1 = 0.115	1006.54
281.15 K, m1 = 0.1268	1007.32
281.15 K, m1 = 0.138	1007.99
281.15 K, m1 = 0.1586	1009.28
281.65 K, m1 = 0.0078	1000.29
281.65 K, m1 = 0.0176	1000.85
281.65 K, m1 = 0.0269	1001.44
281.65 K, m1 = 0.048	1002.65
281.65 K, m1 = 0.0636	1003.66
281.65 K, m1 = 0.0856	1004.88
281.65 K, m1 = 0.0982	1005.63
281.65 K, m1 = 0.115	1006.5
281.65 K, m1 = 0.1268	1007.27
281.65 K, m1 = 0.138	1007.94
281.65 K, m1 = 0.1586	1009.24
282.15 K, m1 = 0.0078	1000.26
282.15 K, m1 = 0.0176	1000.82
282.15 K, m1 = 0.0269	1001.41
282.15 K, m1 = 0.048	1002.62
282.15 K, m1 = 0.0636	1003.62
282.15 K, m1 = 0.0856	1004.84
282.15 K, m1 = 0.0982	1005.59
282.15 K, m1 = 0.115	1006.46
282.15 K, m1 = 0.1268	1007.23
282.15 K, m1 = 0.138	1007.89
282.15 K, m1 = 0.1586	1009.19
282.65 K, m1 = 0.0078	1000.22
282.65 K, m1 = 0.0176	1000.78
282.65 K, m1 = 0.0269	1001.36
282.65 K, m1 = 0.048	1002.57
282.65 K, m1 = 0.0636	1003.58
282.65 K, m1 = 0.0856	1004.79
282.65 K, m1 = 0.0982	1005.54
282.65 K, m1 = 0.115	1006.41
282.65 K, m1 = 0.1268	1007.18
282.65 K, m1 = 0.138	1007.84
282.65 K, m1 = 0.1586	1009.13
283.15 K, m1 = 0.0078	1000.18
283.15 K, m1 = 0.0176	1000.73
283.15 K, m1 = 0.0269	1001.32
283.15 K, m1 = 0.048	1002.53
283.15 K, m1 = 0.0636	1003.53
283.15 K, m1 = 0.0856	1004.74
283.15 K, m1 = 0.0982	1005.49
283.15 K, m1 = 0.115	1006.36
283.15 K, m1 = 0.1268	1007.13
283.15 K, m1 = 0.138	1007.79
283.15 K, m1 = 0.1586	1009.08
